The target of the assay is T1, human TRPV4 (Homo sapiens, UniProt Q9HBA0).
T1 construct: expressed in transfected cells; host or cells: BHK/AC9 cells transduced with BacMam virus
T1 sequence (Q9HBA0 whole entry): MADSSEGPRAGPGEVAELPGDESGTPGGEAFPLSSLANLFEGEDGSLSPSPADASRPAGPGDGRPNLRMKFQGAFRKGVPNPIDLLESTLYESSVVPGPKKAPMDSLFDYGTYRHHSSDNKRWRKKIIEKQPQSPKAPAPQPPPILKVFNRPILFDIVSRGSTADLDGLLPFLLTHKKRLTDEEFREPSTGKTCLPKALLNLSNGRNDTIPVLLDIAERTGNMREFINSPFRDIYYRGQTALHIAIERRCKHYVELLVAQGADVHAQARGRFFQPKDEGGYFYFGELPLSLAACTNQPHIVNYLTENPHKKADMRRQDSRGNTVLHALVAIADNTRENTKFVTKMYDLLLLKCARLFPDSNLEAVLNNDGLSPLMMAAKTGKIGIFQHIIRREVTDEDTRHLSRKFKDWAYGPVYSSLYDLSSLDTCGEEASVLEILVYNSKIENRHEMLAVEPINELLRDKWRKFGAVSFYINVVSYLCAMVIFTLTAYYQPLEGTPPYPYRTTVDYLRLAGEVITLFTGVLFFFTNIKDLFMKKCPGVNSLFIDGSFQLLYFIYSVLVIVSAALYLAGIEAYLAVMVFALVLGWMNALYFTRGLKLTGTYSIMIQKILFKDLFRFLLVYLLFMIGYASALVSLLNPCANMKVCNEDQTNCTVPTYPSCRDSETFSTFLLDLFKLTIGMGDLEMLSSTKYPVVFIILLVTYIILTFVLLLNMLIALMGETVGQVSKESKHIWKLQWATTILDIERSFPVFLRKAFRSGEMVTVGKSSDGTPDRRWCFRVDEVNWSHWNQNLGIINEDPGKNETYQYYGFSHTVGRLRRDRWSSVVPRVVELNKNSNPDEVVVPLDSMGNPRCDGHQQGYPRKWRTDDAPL
Put plainly: FLIPR assay for hTRPV4 expressed in BHK cells: inhibition of Agonist Compound-induced calcium signal. In kind it is cell-based. The following applies: hTRPV4 in BHK/AC9 cells, FLIPR calcium signal, agonist at EC80; reported as range class; read-out: IC50. The essentials:
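Calcium influx through TRPV4 tracked by Fluo-4 fluorescence on FLIPR. Cells: BHK/AC9 transduced with BacMam-hTRPV4 at MOI 78, 24 h culture post-plating (15,000 cells/well). Dye loading: 2 μM Fluo-4 AM with 500 μM Brilliant Black quencher, 1-1.5 h, room temperature, dark.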
Turning to `N#Cc1ccc(O[C@H]2CN(S(=O)(=O)c3ccccc3C#N)C[C@]2(O)CO)cc1F` [Example 137, 4-(((3S,4S)-1-((2-cyanophenyl)sulfonyl)-4-hydroxy-4-(hydroxymethyl)pyrrolidin-3-yl)oxy)-2-fluorobenzonitrile], the IC50 was 0.01 to 0.1 µM. Turning to `N#Cc1ccc(O[C@H]2CN(S(=O)(=O)c3ccc(F)cc3C#N)C[C@]2(O)CO)cc1F` [Example 138, 4-(((3S,4S)-1-((2-cyano-4-fluorophenyl)sulfonyl)-4-hydroxy-4-(hydroxymethyl)pyrrolidin-3-yl)oxy)-2-fluorobenzonitrile], the IC50 lay within 0.0001 to 0.01 µM.

As for `N#Cc1ccc(O[C@H]2CN(S(=O)(=O)c3ccc(Cl)cc3C#N)C[C@]2(O)CO)cc1F` [Example 139, 4-(((3S,4S)-1-((4-chloro-2-cyanophenyl)sulfonyl)-4-hydroxy-4-(hydroxymethyl)pyrrolidin-3-yl)oxy)-2-fluorobenzonitrile], the IC50 lay within 0.0001 to 0.01 µM. Regarding `N#Cc1ccc(O[C@H]2CN(S(=O)(=O)c3cccnc3C#N)C[C@]2(O)CO)cc1F` [Example 140, 3-(((3S,4S)-4-(4-cyano-3-fluorophenoxy)-3-hydroxy-3-(hydroxymethyl)pyrrolidin-1-yl)sulfonyl)picolinonitrile], the 50% inhibitory concentration (IC50) was in the range of 0.01 to 0.1 µM.

Take `N#Cc1ccc(S(=O)(=O)N2C[C@H](Oc3ccc(C#N)c(F)c3)[C@@](O)(CO)C2)c(Cl)c1` [Example 141, 4-(((3S,4S)-1-((2-chloro-4-cyanophenyl)sulfonyl)-4-hydroxy-4-(hydroxymethyl)pyrrolidin-3-yl)oxy)-2-fluorobenzonitrile]: the IC50 was 0.01 to 0.1 µM. With `N#Cc1ccc(O[C@H]2CN(S(=O)(=O)c3ccc(Cl)cc3Cl)C[C@]2(O)CO)cc1F` [Example 142, 4-(((3S,4S)-1-((2,4-dichlorophenyl)sulfonyl)-4-hydroxy-4-(hydroxymethyl)pyrrolidin-3-yl)oxy)-2-fluorobenzonitrile], the IC50 fell in the range of 0.01 to 0.1 µM. For `N#Cc1ccc(O[C@H]2CN(S(=O)(=O)c3ccc(Br)cc3C#N)C[C@]2(O)CO)cc1F` [Example 143, 4-(((3S,4S)-1-((4-bromo-2-cyanophenyl)sulfonyl)-4-hydroxy-4-(hydroxymethyl)pyrrolidin-3-yl)oxy)-2-fluorobenzonitrile], the 50% inhibitory concentration (IC50) is 0.0001 to 0.01 µM. Take `N#Cc1ccc(O[C@H]2CN(S(=O)(=O)c3ccc(F)cc3Br)C[C@]2(O)CO)cc1F` [Example 144, 4-(((3S,4S)-1-((2-bromo-4-fluorophenyl)sulfonyl)-4-hydroxy-4-(hydroxymethyl)pyrrolidin-3-yl)oxy)-2-fluorobenzonitrile]: the IC50 lay in the range of 0.01 to 0.1 µM. For `COc1ccc(S(=O)(=O)N2C[C@H](Oc3ccc(C#N)c(F)c3)[C@@](O)(CO)C2)c(C#N)c1` [Example 145, 4-(((3S,4S)-1-((2-cyano-4-methoxyphenyl)sulfonyl)-4-hydroxy-4-(hydroxymethyl)pyrrolidin-3-yl)oxy)-2-fluorobenzonitrile], the half-inhibitory concentration (IC50) is 0.01 to 0.1 µM. As for `N#Cc1cc(C(F)(F)F)ccc1S(=O)(=O)N1C[C@H](Oc2ccc(Cl)cc2)[C@@](O)(CO)C1` [Example 146, 2-(((3S,4S)-4-(4-chlorophenoxy)-3-hydroxy-3-(hydroxymethyl)pyrrolidin-1-yl)sulfonyl)-5-(trifluoromethyl)benzonitrile], the IC50 was in the range of 0.01 to 0.1 µM. The figure for `N#Cc1cc(F)ccc1S(=O)(=O)N1C[C@H](Oc2ccc(Cl)cc2)[C@@](O)(CO)C1` [Example 147, 2-(((3S,4S)-4-(4-chlorophenoxy)-3-hydroxy-3-(hydroxymethyl)pyrrolidin-1-yl)sulfonyl)-5-fluorobenzonitrile] is 0.01 to 0.1 µM; for `N#Cc1cc(C(F)(F)F)ccc1S(=O)(=O)N1C[C@H](Oc2ccc(C(F)(F)F)cc2)[C@@](O)(CO)C1` [Example 148, 2-(((3S,4S)-3-hydroxy-3-(hydroxymethyl)-4-(4-(trifluoromethyl)phenoxy)pyrrolidin-1-yl)sulfonyl)-5-(trifluoromethyl)benzonitrile] it is 0.01 to 0.1 µM; for `N#Cc1cc(F)ccc1S(=O)(=O)N1C[C@H](Oc2ccc(C(F)(F)F)cc2)[C@@](O)(CO)C1` [Example 149, 5-fluoro-2-(((3S,4S)-3-hydroxy-3-(hydroxymethyl)-4-(4-(trifluoromethyl)phenoxy)pyrrolidin-1-yl)sulfonyl)benzonitrile] it is 0.01 to 0.1 µM.

For the molecule `N#Cc1ccc(S(=O)(=O)N2C[C@H](Oc3ccc(C(F)(F)F)cc3)[C@](O)(CO)C2)c(Cl)c1` [Example 150, 3-chloro-4-(((3R,4S)-3-hydroxy-3-(hydroxymethyl)-4-(4-(trifluoromethyl)phenoxy)pyrrolidin-1-yl)sulfonyl)benzonitrile], the concentration for half-maximal inhibition (IC50) was 0.01 to 0.1 µM.

`N#Cc1cc(Cl)ccc1S(=O)(=O)N1C[C@H](Oc2ccc(Cl)cc2)[C@@](O)(CO)C1` [Example 151, 5-chloro-2-(((3S,4S)-4-(4-chlorophenoxy)-3-hydroxy-3-(hydroxymethyl)pyrrolidin-1-yl)sulfonyl)benzonitrile]: the IC50 lay within 0.0001 to 0.01 µM. The figure for `N#Cc1cc(Cl)ccc1S(=O)(=O)N1C[C@H](Oc2ccc(C(F)(F)F)cc2)[C@@](O)(CO)C1` [Example 152, 5-chloro-2-(((3S,4S)-3-hydroxy-3-(hydroxymethyl)-4-(4-(trifluoromethyl)phenoxy)pyrrolidin-1-yl)sulfonyl)benzonitrile] is 0.0001 to 0.01 µM. The figure for `N#Cc1cc(F)ccc1S(=O)(=O)N1C[C@H](Oc2ccc(C(F)(F)F)cc2)[C@](O)(CO)C1` [Example 153, 5-fluoro-2-(((3R,4S)-3-hydroxy-3-(hydroxymethyl)-4-(4-(trifluoromethyl)phenoxy)pyrrolidin-1-yl)sulfonyl)benzonitrile] is 0.0001 to 0.01 µM. As for `N#Cc1cc(Cl)ccc1S(=O)(=O)N1C[C@H](Oc2ccc(Cl)cc2)[C@](O)(CO)C1` [Example 154, 5-chloro-2-(((3R,4S)-4-(4-chlorophenoxy)-3-hydroxy-3-(hydroxymethyl)pyrrolidin-1-yl)sulfonyl)benzonitrile], the half-maximal inhibitory concentration (IC50) was 0.0001 to 0.01 µM. Consider `N#Cc1cc(F)ccc1S(=O)(=O)N1C[C@H](Oc2ccc(Cl)cc2)[C@](O)(CO)C1` [Example 155, 2-(((3R,4S)-4-(4-chlorophenoxy)-3-hydroxy-3-(hydroxymethyl)pyrrolidin-1-yl)sulfonyl)-5-fluorobenzonitrile], for which the IC50 lay in the range of 0.0001 to 0.01 µM. `N#Cc1cc(Cl)ccc1S(=O)(=O)N1C[C@H](Oc2ccc(C(F)(F)F)cc2)[C@](O)(CO)C1` [Example 156, 5-chloro-2-(((3R,4S)-3-hydroxy-3-(hydroxymethyl)-4-(4-(trifluoromethyl)phenoxy)pyrrolidin-1-yl)sulfonyl)benzonitrile]: the half-inhibitory concentration (IC50) is 0.0001 to 0.01 µM. The figure for `N#Cc1cc(OCC(F)(F)F)c(O[C@H]2CN(S(=O)(=O)c3ccc(C(F)(F)F)cc3C#N)C[C@@]2(O)CO)cc1F` [Example 157, 4-(((3S,4R)-1-((2-cyano-4-(trifluoromethyl)phenyl)sulfonyl)-4-hydroxy-4-(hydroxymethyl)pyrrolidin-3-yl)oxy)-2-fluoro-5-(2,2,2-trifluoroethoxy)benzonitrile] is 0.0001 to 0.01 µM; for `COc1cc(C#N)c(F)cc1O[C@H]1CN(S(=O)(=O)c2ccc(C(F)(F)F)cc2C#N)C[C@@]1(O)CO` [Example 158, 4-(((3S,4R)-1-((2-cyano-4-(trifluoromethyl)phenyl)sulfonyl)-4-hydroxy-4-(hydroxymethyl)pyrrolidin-3-yl)oxy)-2-fluoro-5-methoxybenzonitrile] it is 0.0001 to 0.01 µM; for `CCOc1cc(C#N)c(F)cc1O[C@H]1CN(S(=O)(=O)c2ccc(C(F)(F)F)cc2C#N)C[C@@]1(O)CO` [Example 159, 4-(((3S,4R)-1-((2-cyano-4-(trifluoromethyl)phenyl)sulfonyl)-4-hydroxy-4-(hydroxymethyl)pyrrolidin-3-yl)oxy)-5-ethoxy-2-fluorobenzonitrile] it is 0.0001 to 0.01 µM.

Turning to `CCCOc1cc(C#N)c(F)cc1O[C@H]1CN(S(=O)(=O)c2ccc(C(F)(F)F)cc2C#N)C[C@@]1(O)CO` [Example 160, 4-(((3S,4R)-1-((2-cyano-4-(trifluoromethyl)phenyl)sulfonyl)-4-hydroxy-4-(hydroxymethyl)pyrrolidin-3-yl)oxy)-2-fluoro-5-propoxybenzonitrile], the IC50 lay within 0.0001 to 0.01 µM. Turning to `CC(C)Oc1cc(C#N)c(F)cc1O[C@H]1CN(S(=O)(=O)c2ccc(C(F)(F)F)cc2C#N)C[C@@]1(O)CO` [Example 161, 4-(((3S,4R)-1-((2-cyano-4-(trifluoromethyl)phenyl)sulfonyl)-4-hydroxy-4-(hydroxymethyl)pyrrolidin-3-yl)oxy)-2-fluoro-5-isopropoxybenzonitrile], the IC50 lay in the range of 0.0001 to 0.01 µM.

Turning to `N#Cc1cc(O)c(O[C@H]2CN(S(=O)(=O)c3ccc(C(F)(F)F)cc3C#N)C[C@@]2(O)CO)cc1F` [Example 162, 4-(((3S,4R)-1-((2-cyano-4-(trifluoromethyl)phenyl)sulfonyl)-4-hydroxy-4-(hydroxymethyl)pyrrolidin-3-yl)oxy)-2-fluoro-5-hydroxybenzonitrile], the IC50 fell in the range of 0.0001 to 0.01 µM.

Consider `N#Cc1cc(OCc2ccccc2)c(O[C@H]2CN(S(=O)(=O)c3ccc(C(F)(F)F)cc3C#N)C[C@@]2(O)CO)cc1F` [Example 163, 5-(benzyloxy)-4-(((3S,4R)-1-((2-cyano-4-(trifluoromethyl)phenyl)sulfonyl)-4-hydroxy-4-(hydroxymethyl)pyrrolidin-3-yl)oxy)-2-fluorobenzonitrile], for which the IC50 lay within 0.0001 to 0.01 µM. Take `CCCCOc1cc(C#N)c(F)cc1O[C@H]1CN(S(=O)(=O)c2ccc(C(F)(F)F)cc2C#N)C[C@@]1(O)CO` [Example 164, 5-butoxy-4-(((3S,4R)-1-((2-cyano-4-(trifluoromethyl)phenyl)sulfonyl)-4-hydroxy-4-(hydroxymethyl)pyrrolidin-3-yl)oxy)-2-fluorobenzonitrile]: the 50% inhibitory concentration (IC50) is 0.0001 to 0.01 µM.

For the origin of these results see patent US11229623B2 (GlaxoSmithKline Intellectual Property (No.2) Limited, priority 2016, dated 2022).
